ChEMBL document CHEMBL1949614, “Advent of Imidazo[1,2-a]pyridine-3-carboxamides with Potent Multi- and Extended Drug Resistant Antituberculosis Activity” (ACS Med Chem Lett, 2011)
Converted amounts (≈) assume the structure as drawn. The source made the active and inactive calls. The calls are words filed in the database; no cut-off is given here.

Key:
[1] = tested on: Mycobacterium tuberculosis; assay: microbe, parasite or virus in culture; settings: H37Rv ATCC 27294, 168 h
Description: Antituberculosis activity against Mycobacterium tuberculosis H37Rv ATCC 27294 in GAST medium after 1 week by microplate alamar blue assay

[2] = tested on: Vero; assay: Cytotoxicity against african green monkey Vero cells after 72 hrs; type: cell-based; settings: Chlorocebus sabaeus
[3] = tested on: Mycobacterium tuberculosis; assay: microbe, parasite or virus in culture; settings: H37Rv ATCC 27294, 168 h; remark: listed apart in the source
Description: Antituberculosis activity against Mycobacterium tuberculosis H37Rv ATCC 27294 in GAS medium after 1 week by microplate alamar blue assay

[4] = Cmax in Sprague-Dawley rat at 10 mg/kg, po; type: ADME, organism-based; design: dose 10 mg/kg, route oral; settings: in vivo
[5] = tested on: Rattus norvegicus; assay: Oral bioavailability in Sprague-Dawley rat at 10 mg/kg; type: ADME, organism-based; settings: in vivo
[6] = Drug metabolism in rat liver microsomes at 1 mM after 30 mins by LC/MS analysis; type: ADME, Microsome; settings: read-out: Drug metabolism
[7] = tested on: Mycobacterium tuberculosis; assay: microbe, parasite or virus in culture; settings: H37Rv ATCC 27294, 168 h; remark: listed apart in the source
Description: Antituberculosis activity against Mycobacterium tuberculosis H37Rv ATCC 27294 in 7H12 medium after 1 week by microplate alamar blue assay

[8] = tested on: Candida albicans; assay: Antifungal activity against Candida albicans; type: functional
[9] = Aqueous solubility of the compound in PBS buffer at pH 7.4; type: physicochemical
[10] = Clearance in Sprague-Dawley rat at 1 mg/kg, iv; type: ADME, organism-based; design: dose 1 mg/kg, route intravenous; settings: in vivo
[11] = Half life in Sprague-Dawley rat at 1 mg/kg, iv; type: ADME, organism-based; design: dose 1 mg/kg, route intravenous; settings: in vivo
[12] = in vivo; settings: Sprague-Dawley, rat, po, 10 mg/kg
[13] = tested on: Escherichia coli; assay: Antimicrobial activity against Escherichia coli; type: functional
[14] = tested on: Staphylococcus aureus; assay: Antibacterial activity against Staphylococcus aureus; type: functional
[15] = Drug metabolism in human liver microsomes at 1 mM after 30 mins by LC/MS analysis; type: ADME, Microsome; settings: read-out: Drug metabolism
[16] = tested on: Mycobacterium tuberculosis; assay: Antitubercular activity against non-replicating Mycobacterium tuberculosis H37Rv expressing vibrio harveyii luciferase gene incubated 10 days under anaerobic condition measured after 28 hrs of recovery in aerobic condition by luciferase based low oxygen recovery assay
[17] = tested on: Mycobacterium tuberculosis; assay: microbe, parasite or virus in culture; settings: H37Rv
Description: Antimicrobial activity against Mycobacterium tuberculosis H37Rv by microbroth dilution assay

[18] = tested on: Mycobacterium avium; assay: Antimicrobial activity against Mycobacterium avium by microbroth dilution assay; type: functional
[19] = tested on: Mycobacterium kansasii; assay: Antimicrobial activity against Mycobacterium kansasii by microbroth dilution assay; type: functional
[20] = tested on: Mycobacteroides chelonae; assay: Antimicrobial activity against Mycobacterium chelonae by microbroth dilution assay; type: functional
[21] = tested on: Mycobacterium marinum; assay: Antimicrobial activity against Mycobacterium marinum by microbroth dilution assay; type: functional
[22] = tested on: Mycolicibacterium smegmatis; assay: Antimicrobial activity against Mycobacterium smegmatis by microbroth dilution assay; type: functional
[23] = tested on: Mycobacteroides abscessus; assay: Antimicrobial activity against Mycobacterium abscessus by microbroth dilution assay; type: functional
[24] = tested on: Mycobacterium tuberculosis; assay: Antitubercular activity against Mycobacterium tuberculosis assessed as up-regulation of cytochrome bd oxidase at 0.1 to 10 ug/mL after 6 hrs; type: functional, organism-based
[25] = tested on: Mycobacterium tuberculosis; assay: Antitubercular activity against Mycobacterium tuberculosis assessed as up-regulation of phosphoenolpyruvate carboxykinase at 0.1 to 10 ug/mL after 6 hrs; type: functional, organism-based
[26] = Half life in rat liver microsomes at 1 mM by LC/MS analysis; type: ADME, Microsome

Row | SMILES | MIC90 [1] [µM] | IC50 [2] [µM] | MIC90 [3] [µM] | Cmax [4] [ng/mL] | metabolised at 0.5 h [6] [%] | MIC90 [7] [µM] | MIC [8] [µM] | solubility [9] [µM] | clearance [10] [mL/min/kg] | half-life [11] [min] | Tmax [12] [min] | MIC [13] [µM] | MIC [14] [µM] | metabolised at 0.5 h [15] [%] | MIC90 [16] [µM] | other results
1 | Cc1ccc(CNC(=O)c2c(C)nc3cc(C)ccn23)cc1 | 0.8 (≈ 0.235 µg/mL) | 54.7 | 0.51 (≈ 0.15 µg/mL) | – | – | – | – | – | – | – | – | – | – | – | – | –
2 | COc1ccc(CNC(=O)c2c(C)nc3cc(C)ccn23)cc1 | 0.5 (≈ 0.155 µg/mL) | > 128 | 0.51 (≈ 0.158 µg/mL) | 5740 | 69 | 1.35 (≈ 0.418 µg/mL) | > 128 | 148 (≈ 45.8 µg/mL) | 28 | 16.8 | 15 | > 128 | > 128 | 30 | 10.5 (≈ 3.25 µg/mL) | F [5]: 50%
3 | Cc1ccn2c(C(=O)Nc3ccccc3)c(C)nc2c1 | > 128 | – | – | – | – | – | – | – | – | – | – | – | – | – | – | –
4 | Cc1ccn2c(C(=O)NCc3ccc(Cl)c(Cl)c3)c(C)nc2c1 | 14.4 (≈ 5.01 µg/mL) | – | 9.3 (≈ 3.24 µg/mL) | – | – | – | – | – | – | – | – | – | – | – | – | –
5 | COc1cccc(CNC(=O)c2c(C)nc3ncc(C)cn23)c1 | 0.1 (≈ 0.031 µg/mL) | 88.7 | – | – | – | 0.48 (≈ 0.149 µg/mL) | > 128 | – | – | – | – | > 128 | > 128 | – | > 10 | MIC90 [17]: 5.94 µM (≈ 1.84 µg/mL); MIC90 [18]: 12 µM (≈ 3.72 µg/mL); MIC90 [19]: 12 µM (≈ 3.72 µg/mL); MIC90 [20]: > 50 µM; MIC90 [21]: > 50 µM; MIC90 [22]: > 50 µM; MIC90 [23]: > 50 µM
6 | O=[N+]([O-])c1cn2c(n1)OC[C@@H](OCc1ccc(OC(F)(F)F)cc1)C2 [PRETOMANID] | 0.21 (≈ 0.0754 µg/mL) | > 128 | 0.31 (≈ 0.111 µg/mL) | – | – | 0.47 (≈ 0.169 µg/mL) | – | – | – | – | – | – | – | – | 4.9 (≈ 1.76 µg/mL) | –
7 | COc1cccc(CNC(=O)c2c(C)nc3cc(C)ccn23)c1 | 1 (≈ 0.309 µg/mL) | > 128 | 1.2 (≈ 0.371 µg/mL) | 3140 | 80 | 5.9 (≈ 1.83 µg/mL) | > 128 | 149 (≈ 46.1 µg/mL) | 43 | 19.8 | 15 | > 128 | > 128 | 47 | 31.4 (≈ 9.71 µg/mL) | –
8 | Cc1ccn2c(C(=O)NCc3cccc(F)c3)c(C)nc2c1 | 0.38 (≈ 0.113 µg/mL) | > 128 | 0.29 (≈ 0.0862 µg/mL) | – | – | 1.98 (≈ 0.589 µg/mL) | > 128 | – | – | – | – | > 128 | > 128 | – | 40.1 (≈ 11.9 µg/mL) | –
9 | CO[C@H]1/C=C/O[C@@]2(C)Oc3c(C)c(O)c4c(O)c(c(/C=N/N5CCN(C)CC5)c(O)c4c3C2=O)NC(=O)/C(C)=C\C=C\[C@H](C)[C@H](O)[C@@H](C)[C@@H](O)[C@@H](C)[C@H](OC(C)=O)[C@@H]1C [RIFAMPIN] | 0.2 (≈ 0.165 µg/mL) | 113 | 0.8 (≈ 0.658 µg/mL) | – | – | 0.07 (≈ 0.0576 µg/mL) | – | – | – | – | – | – | – | – | – | MIC90 [17]: 0.05 µM (≈ 0.0411 µg/mL); MIC90 [18]: < 0.78 µM; MIC90 [19]: < 0.78 µM; MIC90 [20]: 150 µM (≈ 123 µg/mL); MIC90 [21]: < 0.78 µM; MIC90 [22]: 162 µM (≈ 134 µg/mL); MIC90 [23]: 162 µM (≈ 134 µg/mL)
10 | COc1ccccc1CNC(=O)c1c(C)nc2cc(C)ccn12 | 1.9 (≈ 0.588 µg/mL) | > 128 | 2.8 (≈ 0.866 µg/mL) | – | – | – | – | – | – | – | – | – | – | – | – | –
11 | Cc1ccn2c(C(=O)NCc3ccc(Cl)cc3)c(C)nc2c1 | 0.51 (≈ 0.16 µg/mL) | > 128 | 0.5 (≈ 0.157 µg/mL) | 2000 | 79 | 1.94 (≈ 0.609 µg/mL) | > 128 | 25 (≈ 7.84 µg/mL) | 51 | 24 | 18.6 | > 128 | > 128 | 82 | 28 (≈ 8.79 µg/mL) | F [5]: 49%
12 | Cc1ccn2c(C(=O)NCc3ccccc3)c(C)nc2c1 | 0.69 (≈ 0.193 µg/mL) | > 128 | 0.37 (≈ 0.103 µg/mL) | 3010 | 71 | 1.9 (≈ 0.531 µg/mL) | > 128 | 181 (≈ 50.6 µg/mL) | 91 | 21 | 15 | > 128 | > 128 | 59 | 53.6 (≈ 15 µg/mL) | F [5]: 76%; MIC90 [17]: 1.07 µM (≈ 0.299 µg/mL); Activity [24]: Active; MIC90 [18]: 1.32 µM (≈ 0.369 µg/mL); Activity [25]: Active; half-life [26]: 19 min; MIC90 [19]: 1.32 µM (≈ 0.369 µg/mL); MIC90 [20]: > 50 µM; MIC90 [21]: > 50 µM; MIC90 [22]: > 50 µM; MIC90 [23]: > 50 µM
